The text below walks through data of PubChem BioAssay (NCI).

Among the test systems are IGROV1 ovarian; NCI-H226 lung; NCI-H460 lung; NCI/ADR-RES ovarian; OVCAR-8 ovarian; SF-539 CNS; SW-620 colon; T-47D breast; UACC-62 melanoma.
Assay in all cases: NCI tumour cell line growth inhibition, 48 h

SMILES strings stand for the structures.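 How tested: cells in 96-well plates exposed to compound for 48 hours at five concentrations. Abbreviation: GI50, concentration required for 50% inhibition of growth. TGI denotes the concentration required for complete inhibition of growth.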

In the case of `CSc1cc(-c2ccccn2)nc(-c2ccccn2)c1`, the TGI with IGROV1 ovarian amounted to 8.99 µM; in the experiment with NCI-H226 lung, 0.955 µM; in the experiment with NCI-H460 lung, 1.88 µM; with NCI/ADR-RES ovarian, 1 µM; in the experiment on OVCAR-8 ovarian, 12.5 µM; in the experiment on SF-539 CNS, 6.06 µM. Also, the TGI was 16.6 µM in the experiment on SW-620 colon, 17.6 µM with T-47D breast and 1.23 µM in the experiment with UACC-62 melanoma.

Turning to `CCOC(=O)C[n+]1cccc(C2(c3cc4ccccc4[nH]3)OCCO2)c1`, the TGI with IGROV1 ovarian, with NCI-H226 lung, in the experiment on NCI-H460 lung, in the experiment on NCI/ADR-RES ovarian, in the experiment on OVCAR-8 ovarian and in the experiment with SF-539 CNS was over 100 µM in each case. Further, the TGI in the experiment on SW-620 colon, with T-47D breast and with UACC-62 melanoma was over 100 µM in each case.

`CCO[C@@]1(COCc2ccccc2)OC(=O)C[C@@H]1N1C(=O)OC[C@@H]1c1ccccc1`: the TGI in the experiment with IGROV1 ovarian, with NCI-H226 lung, in the experiment on NCI-H460 lung, with NCI/ADR-RES ovarian, in the experiment on OVCAR-8 ovarian and in the experiment with SF-539 CNS was over 100 µM each time. Further, the TGI in the experiment with SW-620 colon, in the experiment on T-47D breast and with UACC-62 melanoma was over 100 µM throughout.

`COc1cc(O)c2c(=O)c3c(C)cccc3n(C)c2c1`: the TGI with IGROV1 ovarian, with NCI-H226 lung, with NCI-H460 lung, in the experiment with NCI/ADR-RES ovarian, with OVCAR-8 ovarian and in the experiment on SF-539 CNS was over 10 µM in each case. The TGI in the experiment on SW-620 colon, in the experiment on T-47D breast and in the experiment with UACC-62 melanoma was over 10 µM in each case.

Take `CCOC(=O)c1c(Br)c(-c2ccc(OC)cc2)c(Br)n1C`: the TGI in the experiment on IGROV1 ovarian was over 100 µM; in the experiment with NCI-H226 lung, 87.5 µM; in the experiment on NCI-H460 lung, over 100 µM; in the experiment on NCI/ADR-RES ovarian it was 55.3 µM; in the experiment on OVCAR-8 ovarian it was over 100 µM; in the experiment on SF-539 CNS, 70.9 µM. For the same compound, the TGI was found to be 38.2 µM in the experiment with SW-620 colon, 82.1 µM with T-47D breast and 47.6 µM with UACC-62 melanoma. The GI50 with NCI/ADR-RES ovarian was 23.7 µM; in the experiment on UACC-62 melanoma, 13 µM.

In the case of `O=c1oc2ccc([N+](=O)[O-])cc2c(Nc2ccc3c(c2)Sc2ccccc2O3)c1[N+](=O)[O-]`, the TGI in the experiment with IGROV1 ovarian came out at 54.9 µM; in the experiment with NCI-H226 lung, 35.8 µM; in the experiment with NCI-H460 lung, 57.8 µM; in the experiment on NCI/ADR-RES ovarian it was 85.5 µM; in the experiment on OVCAR-8 ovarian, 77.3 µM; in the experiment on SF-539 CNS it was 37.7 µM. The TGI with SW-620 colon is 80.6 µM; in the experiment with T-47D breast it was over 100 µM; with UACC-62 melanoma, 32.3 µM.

`NNc1nncc2[nH]cnc12`: the TGI in the experiment with IGROV1 ovarian, in the experiment with NCI-H226 lung, in the experiment with NCI-H460 lung, with NCI/ADR-RES ovarian, with OVCAR-8 ovarian and in the experiment with SF-539 CNS was over 100 µM each time. The TGI with SW-620 colon, with T-47D breast and with UACC-62 melanoma was over 100 µM in each case.

As for `CSc1c(C#N)c(N)nc2c(N=Nc3ccc(Br)cc3)c(N)nn12`, the TGI is 8.82 µM in the experiment with IGROV1 ovarian; 39.5 µM with NCI-H226 lung; over 49.1 µM with NCI-H460 lung; 47.5 µM in the experiment on NCI/ADR-RES ovarian; 23.4 µM with OVCAR-8 ovarian; 23.6 µM with SF-539 CNS. The TGI amounted to 12.7 µM with SW-620 colon, 4.74 µM with T-47D breast and 19.4 µM in the experiment on UACC-62 melanoma.

Take `COC12CCCN1c1ccn(Cc3ccccc3)c(=O)c1C2=O` (stereo not drawn): the TGI in the experiment with IGROV1 ovarian, in the experiment on NCI-H226 lung, in the experiment with NCI-H460 lung, in the experiment on NCI/ADR-RES ovarian, in the experiment with OVCAR-8 ovarian and with SF-539 CNS was over 100 µM in each case. Further, the TGI in the experiment on SW-620 colon, with T-47D breast and with UACC-62 melanoma was over 100 µM in each case.

As to `C=C1c2nc3ccccc3n2C=C(c2ccc(C)cc2)N1c1ccc(C)cc1`, the TGI in the experiment with IGROV1 ovarian was over 100 µM; in the experiment on NCI-H226 lung it was over 44.4 µM; in the experiment with NCI-H460 lung it was over 100 µM; with NCI/ADR-RES ovarian it was over 78.9 µM; with OVCAR-8 ovarian, over 100 µM; in the experiment with SF-539 CNS, over 100 µM. In addition, the TGI with SW-620 colon, in the experiment with T-47D breast and in the experiment with UACC-62 melanoma was over 100 µM in each case.

With `C/C(=C\c1ccccc1)C(=O)NCc1ccc(C(=O)NCCc2ccccc2)cc1`, the TGI in the experiment on IGROV1 ovarian was over 100 µM; in the experiment on NCI-H226 lung it was 66.1 µM; in the experiment on NCI-H460 lung, over 100 µM; in the experiment on NCI/ADR-RES ovarian, over 100 µM; in the experiment on OVCAR-8 ovarian it was 14.7 µM; in the experiment with SF-539 CNS it was over 81.9 µM. Moreover, the TGI in the experiment on SW-620 colon, with T-47D breast and with UACC-62 melanoma was over 100 µM in each case.

Take `COC(=O)/C=C\C(C#N)(C#N)N=Cc1ccccc1`: the TGI with IGROV1 ovarian came out at 25.9 µM; with NCI-H226 lung, 21 µM; in the experiment with NCI-H460 lung, 39.5 µM; in the experiment on NCI/ADR-RES ovarian, 9.03 µM; in the experiment with OVCAR-8 ovarian, 4.38 µM; in the experiment with SF-539 CNS, 9.71 µM. Moreover, the figures for the TGI in the experiment on SW-620 colon, in the experiment on T-47D breast and in the experiment with UACC-62 melanoma were 5.54 µM, 3.88 µM and 28 µM, respectively.

For `CSC1C(=O)Nc2ccc3ccccc3c21` (stereo not drawn), the TGI is 33.3 µM in the experiment with IGROV1 ovarian; over 100 µM with NCI-H226 lung; over 100 µM with NCI-H460 lung; over 100 µM in the experiment on NCI/ADR-RES ovarian; 34.9 µM in the experiment with OVCAR-8 ovarian; 45.7 µM in the experiment with SF-539 CNS. Further, the values for the TGI in the experiment with SW-620 colon, in the experiment on T-47D breast and with UACC-62 melanoma were 49 µM, 29.4 µM and 35.9 µM, respectively.

With `c1ccc(CN[C@]23C4C5CC6C7C5C2C7[C@@](NCc2ccccc2)(C64)N3Cc2ccccc2)cc1` (stereo partly drawn), the TGI in the experiment on IGROV1 ovarian, with NCI-H226 lung, in the experiment on NCI-H460 lung, in the experiment with NCI/ADR-RES ovarian, with OVCAR-8 ovarian and with SF-539 CNS was over 100 µM throughout. Also, the TGI with SW-620 colon, in the experiment with T-47D breast and with UACC-62 melanoma was over 100 µM each time.
